Data as given in PMC2192493 (The Journal of Experimental Medicine, 1996).

Key:
[1] = target: T1, H-2Kd (Mus musculus, UniProt P01902); assay: Competitive inhibition of 125I-LLO; format: binding; settings: for binding to H-2Kd (in words): peptide-binding inhibition experiments, Fig. 1
[2] = target: T1, H-2Kd; settings: cited from earlier work
[3] = tested on: Meth A; assay: 4-h 51Cr release assay of vaccine-induced effectors, Meth A targets; format: cell-based, mouse; settings: 239CM-induced CTL; separate experiment, data not shown
[4] = tested on: CMS1; assay: 4-h 51Cr release assay of vaccine-induced effectors, CMS1 targets; format: cell-based, mouse; settings: separate experiment, data not shown
[5] = cited from earlier work

T1 sequence (P01902 whole entry, looked up): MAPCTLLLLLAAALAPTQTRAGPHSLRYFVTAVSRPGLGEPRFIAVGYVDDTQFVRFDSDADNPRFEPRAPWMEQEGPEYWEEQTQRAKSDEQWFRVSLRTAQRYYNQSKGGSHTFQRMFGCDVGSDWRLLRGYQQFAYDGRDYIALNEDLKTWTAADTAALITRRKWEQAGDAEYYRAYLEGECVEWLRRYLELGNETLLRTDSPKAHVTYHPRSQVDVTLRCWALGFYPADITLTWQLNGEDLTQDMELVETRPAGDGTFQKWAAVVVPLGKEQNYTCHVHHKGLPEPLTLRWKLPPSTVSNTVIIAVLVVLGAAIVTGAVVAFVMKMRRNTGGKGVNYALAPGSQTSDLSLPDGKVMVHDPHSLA

Substance: 234CW: wild-type peptide p53(232-240) (KYMCNSSCM; UniProt P02340 232-240, looked up, fragment)
- binding to H-2Kd (in words) [1]: capable of binding to H-2Ka

Substance: GFKDGNEYI [LLO(Y2F), reference compound]
- relative binding to H-2Kd (in words) ([1]; compared with other peptides in the same assay): comparable to that of the parent peptide

Substance: GYKDGNEYI [LLO]
- binding affinity to H-2Kd (in words) [2]: high affinity

Substance: KYMCNSSFM [239CM]
- induction of CTL reactive against Meth A [3]: not Meth A
- induction of CTL reactive against CMS1 [4]: induced CTL reactive against CMS1
- binding to H-2Kd (in words) [1]: capable of binding to H-2Ka

Substance: LFCQLAKTC [132CW]
- immunogenicity (in words) [5]: lack of immunogenicity

Substance: LFFQLAKTC [132CM]
- immunogenicity (in words) [5]: lack of immunogenicity

Substance: MTEVVRtkCP [168CW]
- immunogenicity (in words) [5]: lack of immunogenicity

Substance: MTGVVR.R.CP [168CM]
- immunogenicity (in words) [5]: lack of immunogenicity
